From patent US9067898B1, “Isothiazole derivatives as GPR120 agonists for the treatment of type II diabetes” (Janssen Pharmaceutica NV, priority 2014, dated 2015)

Biological target: T1, Human GPR120 short form (Homo sapiens, UniProt Q5NUL3)
T1 construct: expressed in transfected cells
T1 sequence (Q5NUL3 1-361): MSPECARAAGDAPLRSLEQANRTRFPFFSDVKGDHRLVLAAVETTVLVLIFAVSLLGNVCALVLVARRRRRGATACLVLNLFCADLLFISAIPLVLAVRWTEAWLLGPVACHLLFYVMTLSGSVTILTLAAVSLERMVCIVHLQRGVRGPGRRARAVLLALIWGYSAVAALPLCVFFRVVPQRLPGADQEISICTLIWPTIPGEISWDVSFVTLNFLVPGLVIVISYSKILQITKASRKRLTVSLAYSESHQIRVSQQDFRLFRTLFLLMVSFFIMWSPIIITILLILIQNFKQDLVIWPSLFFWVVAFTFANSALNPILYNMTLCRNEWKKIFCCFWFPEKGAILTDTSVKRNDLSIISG
Experiment: Human GPR120 calcium flux assay (FLIPR), Procedure Calcium A
Type: cell-based
Details: HEK-293 cells expressing human GPR120 short form, 2500 cells/well; read-out: GPR120 Ca2+ Assay A EC50
Description: This in vitro assay serves to assess test compound agonist activity against the short splice variant (SVS with Accession number NM_001195755.1 confirmed by sequencing data) of the GPR120 receptor. The Human Short splice variant #2 (NM_001195755.1) is missing an in-frame coding exon compared to variant 1 (the Human Long splice variant NM_181745.3), resulting in a shorter isoform (GPR120-S) lacking a 16 aa protein segment compared to isoform GPR120-L. The assay platform utilizes HEK-293 cells stably transfected to express the Human GPR120 short form. These cells are first loaded with the Ca^+2 sensitive dye, Fluo-4 NW. Upon stimulation, intracellular released Ca^+2 can bind to the dye and alter its fluorescence intensity. This increase in fluorescence signal, and thus the flux in intracellular [Ca^2+], is detected and quantitated by fluorescence imaging using a FLIPR reader. The effect of the agonist is measured as a function of concentration and used to calculate an EC50 based upon a response curve.
In this procedure 2500 cells/well were employed.
A Human GPR120 clone (Genbank accession number NM_001195755.1) was placed into the pcDNA3.1 mammalian expression vector carrying the neomycin resistance gene. A stable mammalian cell was generated by placing the above clone into a HEK293 background. Clonal cells responding to long chain fatty acids had expression levels of GPR120 confirmed by RT-qPCR. Human HEK-GPR120 cells were cultured in Dulbecco's Modified Eagle's Medium (DMEM)/F12 medium supplemented with 10% fetal bovine serum (FBS), 1% L-Glutamine and 1% penicillin/streptomycin and 0.5 mg/ml G-418. Cells were split 2 times a week to keep the cells in the log-phase growth.
In preparation for the assay, HEK cells stably transfected with Human GPR120 (2.5K cells per well in 25 uL growth medium) were seeded into 384-well plates and then incubated overnight (37° C., 5% CO2). The next day, the media was changed to 20 μL assay buffer and the cell starved for 1 h at 37° C. The dye loading solution (2× dye) was prepared using 10 mL assay buffer, 100 μL of 250 mM probenecid, 1 bottle of Component A, and 20 μl of dye in DMSO. Twenty μL of the 2× dye loading buffer was then added to each well. The plates were incubated at 37° C. for 30 min, then at room temperature for an additional 15 minutes, before performing the assay on FLIPR. Test compounds were prepared in assay buffer (2 uL of cpd+198 uL assay buffer, final DMSO in assay plate is 0.2%) at the desired concentration, more particularly at 100, 50, 25, 12.5, 6.25, 3.125, 1.562, 0.781, 0.391, 0.195, 0.098, 0.049, 0.024 and 0.012 μM.
The assay was performed on a FLIPR plate reader using the following parameters. Baseline was read for 10 seconds at 1 sec intervals. The program was set to transfer 10 μL of ligand from compound plate to cell plate after baseline reading. Aspiration was executed at: 10 μL/sec speed, 4.6 μL height; Dispensing was executed at: 30 μL/sec speed, 45 μL height. After compound addition, each well was read for 300 sec, with measurements collected at 1 sec intervals.
The kinetic data from the FLIPR was based upon a 5 minute window for data collection. The fluorescence of each sample well was used for individual calculations of a normalized RFU value, which was defined as maximum response minus the minimum response. The normalized fluorescence reading (RFU) was calculated as follows: RFU=Fmax−Fmin The data were fitted to a sigmoidal dose-response curve with a variable Hill slope (<2) using nonlinear regression with GraphPad Prism 5.0 to calculate the EC50 values. The Fitting Equation was: Y=Bottom+(Top−Bottom)/(1+10^((Log EC50−X)*HillSlope)), where X is the log of the concentration and Y is the response.

SMILES	EC50
Cc1cc(OCc2c(-c3ccc(Cl)cc3)nsc2C(F)(F)F)c(F)cc1CCC(=O)O [Cpd 125, 3-(4-((3-(4-chlorophenyl)-5-(trifluoromethyl)isothiazol-4-yl)methoxy)-5-fluoro-2-methylphenyl)propanoic acid]	121 nM
CCc1ccc(-c2cc(F)sc2COc2ccc(CCCO)c(F)c2F)cc1 [Cpd 17, 3-(4-[[3-(4-ethylphenyl)-5-fluorothiophen-2-yl]methoxy]-2,3-difluorophenyl)propan-1-ol]	406 nM
O=C(O)CCc1cc(Br)c(OCc2c(-c3ccc(Cl)cc3)nsc2C(F)(F)F)c(Br)c1 [Cpd 241, 3-(3,5-dibromo-4-[[3-(4-chlorophenyl)-5-(trifluoromethyl)-1,2-thiazol-4-yl]methoxy]phenyl) propanoic acid]	450 nM
Cc1ccc(-c2csc(C(F)(F)F)c2COc2c(F)cc(CCCO)cc2F)cn1 [Cpd 36, 3-(3,5-difluoro-4-((4-(6-methylpyridin-3-yl)-2-(trifluoromethyl)thiophen-3-yl)methoxy)phenyl)propan-1-61]	90 nM
O=C(O)CCc1ccc(OCc2c(-c3ccc(Cl)cc3)nsc2C(F)(F)F)c(F)c1 [Cpd 68, 3-(4-[[3-(4-chlorophenyl)-5-(trifluoromethyl)-1,2-thiazol-4-yl]methoxy]-3-fluorophenyl)propanoic acid]	28 nM
COc1ccc(-c2csc(C(F)(F)F)c2COc2ccc(CCC(=O)O)c(C)c2C)cc1 [Cpd 60, 3-(4-((4-(4-methoxyphenyl)-2-(trifluoromethyl)thiophen-3-yl)methoxy)-2,3-dimethylphenyl)propanoic acid]	510 nM
C#Cc1ccc(-c2nscc2COc2ccc(CCC(=O)O)c(C)c2C)cc1 [Cpd 161, 3-(4-((3-(4-ethynylphenyl)isothiazol-4-yl)methoxy)-2,3-dimethylphenyl)propanoic acid]	202 nM
Cc1c(CCC(=O)O)ccc(OCc2c(-c3ccc(C(C)F)cc3)nsc2C(F)(F)F)c1C (stereo not shown) [Cpd 146, 3-[4-([3-[4-(1-fluoroethyl)phenyl]-5-(trifluoromethyl)-1,2-thiazol-4-yl]methoxy)-2,3-dimethylphenyl]propanoic acid]	165 nM
CCc1ccc(-c2nsc(C(F)(F)F)c2COc2c(F)cc(C3CC3C(=O)O)cc2F)cc1 (stereo not shown) [Cpd 163, 2-(4-[[3-(4-ethylphenyl)-5-(trifluoromethyl)-1,2-thiazol-4-yl]methoxy]-3,5-difluorophenyl)cyclopropane-1-carboxylic acid]	203 nM
CC(=O)c1ccc(-c2nsc(C(F)(F)F)c2COc2c(F)cc(CCC(=O)O)cc2F)cc1 [Cpd 131, 3-(4-[[3-(4-acetylphenyl)-5-(trifluoromethyl)-1,2-thiazol-4-yl]methoxy]-3,5-difluorophenyl) propanoic acid]	129 nM
CCc1ccc(-c2cc(C(F)(F)F)sc2COc2ccc(CCC(=O)O)c(F)c2F)cc1 [Cpd 21, 3-(4-((3-(4-ethylphenyl)-5-(trifluoromethyl)thiophen-2-yl)methoxy)-2,3-difluorophenyl)propanoic acid]	788 nM
Cc1ccc(-c2snc(-c3ccccc3)c2COc2c(F)cc(CCC(=O)O)cc2F)c(F)c1 [Cpd 211, 3-(3,5-difluoro-4-[[5-(2-fluoro-4-methylphenyl)-3-phenyl-1,2-thiazol-4-yl]methoxy]phenyl)propanoic acid]	597 nM
Cc1c(CCC(=O)O)ccc(OCc2c(-c3ccc(C(C)(F)F)cc3)nsc2C(F)(F)F)c1C [Cpd 178, 3-[4-([3-[4-(1,1-difluoroethyl)phenyl]-5-(trifluoromethyl)-1,2-thiazol-4-yl]methoxy)-2,3-dimethylphenyl]propanoic acid]	263 nM
CCc1ccc(-c2nsc(C(F)(F)F)c2COc2ccc(CCC(=O)O)c3c2CCC3)cc1 [Cpd 103, 3-(7-[[3-(4-ethylphenyl)-5-(trifluoromethyl)-1,2-thiazol-4-yl]methoxy]-2,3-dihydro-1H-inden-4-yl)propanoic acid]	80 nM
Cc1c(CCC(=O)O)ccc(OCc2c(Cl)nsc2-c2ccc(C(F)(F)F)cc2)c1C [Cpd 112, 3-[4-([3-chloro-5-[4-(trifluoromethyl)phenyl]-1,2-thiazol-4-yl]methoxy)-2,3-dimethylphenyl]propanoic acid]	99 nM
CCc1ccc(-c2nsc(-c3ccccc3)c2COc2ccc(CCC(=O)O)c(C)c2C)cc1 [Cpd 233, 3-(4-[[3-(4-ethylphenyl)-5-phenyl-1,2-thiazol-4-yl]methoxy]-2,3-dimethylphenyl)propanoic acid]	1100 nM
OCCCc1cc(F)c(OCc2sc(F)cc2-c2ccc(Cl)cc2)c(F)c1 [Cpd 18, 3-(4-[[3-(4-chlorophenyl)-5-fluorothiophen-2-yl]methoxy]-3,5-difluorophenyl)propan-1-ol]	518 nM
COc1cc(-c2nsc(C(F)(F)F)c2COc2ccc(CCC(=O)O)c(C)c2C)ccc1Cl [Cpd 144, 3-(4-((3-(4-chloro-3-methoxyphenyl)-5-(trifluoromethyl)isothiazol-4-yl)methoxy)-2,3-dimethylphenyl)propanoic acid]	160 nM
Cc1c(CCC(=O)O)ccc(OCc2c(-c3ccc(Cl)cc3F)csc2C(F)(F)F)c1C [Cpd 59, 3-(4-((4-(4-chloro-2-fluorophenyl)-2-(trifluoromethyl)thiophen-3-yl)methoxy)-2,3-dimethylphenyl)propanoic acid]	348 nM
CCc1ccc(-c2nsc(C(F)(F)F)c2COc2ccc(CCC(=O)O)c(C(F)(F)F)c2C)cc1 [Cpd 242, 3-(4-[[3-(4-ethylphenyl)-5-(trifluoromethyl)-1,2-thiazol-4-yl]methoxy]-3-methyl-2-(trifluoro-methyl)phenyl)propanoic acid]	1290 nM
CCc1ccc(-c2nsc(C(F)(F)F)c2COc2ccc(CCC(=O)O)c(F)c2C(F)(F)F)cc1 [Cpd 157, 3-(4-[[3-(4-ethylphenyl)-5-(trifluoromethyl)-1,2-thiazol-4-yl]methoxy]-2-fluoro-3-(trifluoromethyl)phenyl)propanoic acid]	188 nM
COc1cc(-c2nsc(C(F)(F)F)c2COc2c(F)cc(CCC(=O)O)cc2F)ccc1Cl [Cpd 177, 3-(4-((3-(4-chloro-3-methoxyphenyl)-5-(trifluoromethyl)isothiazol-4-yl)methoxy)-3,5-difluorophenyl)propanoic acid]	263 nM
